According to PubChem BioAssay (NCI):
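Cells were grown in 96-well plates and exposed to each compound for 48 hours at five concentrations; endpoints were interpolated linearly between bracketing concentrations, or set to the highest concentration if not reached. GI50: concentration for 50% inhibition of growth. Definition used: TGI = concentration required for complete inhibition of growth.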

Assays:
Experiment in all cases: NCI-60 cell line screen, 48 h; in the data active means GI50 below about 0.43 µM; inactive means the rest
[1] = tested on: RPMI-8226 leukemia
[2] = tested on: UACC-62 melanoma
[3] = tested on: KM12 colon
[4] = tested on: SN12C renal
[5] = tested on: SF-295 CNS
[6] = tested on: SW-620 colon
[7] = tested on: MOLT-4 leukemia
[8] = tested on: CAKI-1 renal
[9] = tested on: SNB-78 CNS
[10] = tested on: ACHN renal
[11] = tested on: HCT-116 colon
[12] = tested on: 786-0 renal
[13] = tested on: UACC-257 melanoma
[14] = tested on: UO-31 renal
[15] = tested on: LXFL 529 NSCLC
[16] = tested on: SK-MEL-2 melanoma
[17] = tested on: KM20L2 colon
[18] = tested on: SNB-75 CNS
[19] = tested on: SK-MEL-28 melanoma
[20] = tested on: A498 renal
[21] = tested on: SK-MEL-5 melanoma
[22] = tested on: SF-268 CNS
[23] = tested on: COLO 205 colon
[24] = tested on: LOX IMVI melanoma
[25] = tested on: NCI-H522 lung
[26] = tested on: XF 498 CNS
[27] = tested on: HOP-62 NSCLC
[28] = tested on: DMS 273 small cell lung
[29] = tested on: HOP-92 NSCLC
[30] = tested on: OVCAR-3 ovarian
[31] = tested on: NCI-H226 lung
[32] = tested on: IGROV1 ovarian
[33] = tested on: CCRF-CEM leukemia
[34] = tested on: NCI-H23 lung
[35] = tested on: RXF 393 renal
[36] = tested on: K-562 leukemia
[37] = tested on: DMS 114 small cell lung
[38] = tested on: A549 NSCLC
[39] = tested on: HCC-2998 colon
[40] = tested on: OVCAR-8 ovarian
[41] = tested on: SNB-19 CNS
[42] = tested on: M14 melanoma
[43] = tested on: DLD-1 colon
[44] = tested on: HL-60(TB) leukemia
[45] = tested on: HT29 colon
[46] = tested on: U251 CNS
[47] = tested on: SF-539 CNS
[48] = tested on: HCT-15 colon
[49] = tested on: MALME-3M melanoma
[50] = tested on: SK-OV-3 ovarian
[51] = tested on: TK-10 renal
[52] = tested on: HOP-18 NSCLC
[53] = tested on: OVCAR-4 ovarian
[54] = tested on: EKVX NSCLC
[55] = tested on: NCI-H460 lung
[56] = tested on: RXF-631 renal
[57] = tested on: OVCAR-5 ovarian
[58] = tested on: M19-MEL melanoma

COC(=O)C1CC(C(=O)OC)c2nc3cc([N+](=O)[O-])ccc3nc21 (configuration not stated)
> 100 µM: TGI [1] | TGI [2] | TGI [3] | TGI [4] | TGI [5] | TGI [6] | TGI [7] | TGI [8] | TGI [9] | TGI [10] | TGI [11] | TGI [12] | TGI [13] | TGI [15] | TGI [16] | TGI [17] | TGI [18] | TGI [19] | TGI [20] | TGI [21] | TGI [22] | TGI [23] | TGI [26] | TGI [27] | TGI [28] | TGI [29] | TGI [30] | TGI [31] | TGI [32] | TGI [33] | TGI [34] | TGI [35] | TGI [36] | TGI [37] | TGI [38] | TGI [40] | TGI [41] | TGI [42] | TGI [43] | TGI [45] | TGI [46] | TGI [47] | TGI [48] | TGI [49] | TGI [50] | TGI [51] | TGI [52] | TGI [53] | TGI [54] | TGI [55] | TGI [56] | TGI [57] | TGI [58]
> 59.1 µM: TGI [39]
98.9 µM: TGI [14]
> 86.8 µM: TGI [44]
> 64.7 µM: TGI [25]
> 31.6 µM: TGI [24]

CCO.CCO.Oc1ccc(Nc2ncns2)cc1.Oc1ccc(Nc2ncns2)cc1.[Ti]
80.7 µM: TGI [28]
inactive: GI50 [1] 31.3 µM | GI50 [2] 45.9 µM | GI50 [3] 47.5 µM | GI50 [4] 67 µM | GI50 [5] 69.9 µM | GI50 [6] 39.5 µM | GI50 [7] 27.5 µM | GI50 [8] 47.5 µM | GI50 [9] 41.6 µM | GI50 [10] 33.2 µM | GI50 [11] 30.2 µM | GI50 [12] 49.6 µM | GI50 [13] 30.2 µM | GI50 [14] 41.6 µM | GI50 [15] 24.7 µM | GI50 [16] 27.6 µM | GI50 [17] > 100 µM | GI50 [18] 15.8 µM | GI50 [19] 53 µM | GI50 [20] 28.6 µM | GI50 [21] 23.4 µM | GI50 [22] 36.2 µM | GI50 [23] 21.5 µM | GI50 [24] 30.1 µM | GI50 [25] 13.6 µM | GI50 [26] 44.9 µM | GI50 [27] 71.5 µM | GI50 [28] 25.3 µM | GI50 [30] 55.8 µM | GI50 [31] > 100 µM | GI50 [32] 93 µM | GI50 [33] 27.7 µM | GI50 [34] 27.6 µM | GI50 [36] 29 µM | GI50 [37] 21.6 µM | GI50 [38] 43.6 µM | GI50 [39] 53.1 µM | GI50 [40] 39.7 µM | GI50 [41] 64.6 µM | GI50 [42] 45.4 µM | GI50 [43] 36.5 µM | GI50 [44] 24.7 µM | GI50 [45] 31.5 µM | GI50 [47] 34.5 µM | GI50 [48] 48.1 µM | GI50 [49] 38.3 µM | GI50 [50] > 100 µM | GI50 [51] 50.8 µM | GI50 [52] > 100 µM | GI50 [53] 38.8 µM | GI50 [54] 34.6 µM | GI50 [55] 26.7 µM | GI50 [56] 33 µM | GI50 [57] > 100 µM | GI50 [58] 44.5 µM
87.7 µM: TGI [55]
28.3 µM: TGI [25]
91.8 µM: TGI [34]
> 100 µM: TGI [1] | TGI [2] | TGI [3] | TGI [4] | TGI [5] | TGI [6] | TGI [7] | TGI [8] | TGI [9] | TGI [10] | TGI [11] | TGI [12] | TGI [13] | TGI [14] | TGI [15] | TGI [17] | TGI [19] | TGI [22] | TGI [24] | TGI [26] | TGI [27] | TGI [30] | TGI [31] | TGI [32] | TGI [33] | TGI [36] | TGI [38] | TGI [39] | TGI [40] | TGI [41] | TGI [42] | TGI [43] | TGI [45] | TGI [47] | TGI [48] | TGI [49] | TGI [50] | TGI [51] | TGI [52] | TGI [53] | TGI [56] | TGI [57] | TGI [58]
70.7 µM: TGI [16]
72.3 µM: TGI [21]
87.9 µM: TGI [54]
47.4 µM: TGI [23]
67.5 µM: TGI [37]
74.1 µM: TGI [44]
69.1 µM: TGI [18]
74.9 µM: TGI [20]

C[n+]1[se]c2ccccc2c1Cl
42.7 µM: TGI [25]
> 54.7 µM: TGI [19]
> 75.7 µM: TGI [17]
45.8 µM: TGI [18] | TGI [34]
> 54.9 µM: TGI [26]
> 100 µM: TGI [15] | TGI [20] | TGI [41] | TGI [50] | TGI [55]
> 56.2 µM: TGI [8]
> 58.8 µM: TGI [27]
> 59.2 µM: TGI [12]
> 67.3 µM: TGI [48]
> 59.8 µM: TGI [23]
> 77.5 µM: TGI [32]
> 56.7 µM: TGI [3]
50.9 µM: TGI [5]
23.7 µM: TGI [4]
> 63 µM: TGI [51]
20.2 µM: TGI [29]
19.6 µM: TGI [44]
> 81.9 µM: TGI [39]
> 56.9 µM: TGI [49]
> 84.7 µM: TGI [40]
> 67.2 µM: TGI [56]
> 60 µM: TGI [53]
> 70.7 µM: TGI [10] | TGI [36]
> 76.3 µM: TGI [45]
> 63.5 µM: TGI [14]
37.1 µM: TGI [47]
41.5 µM: TGI [28]
> 71.1 µM: TGI [31]
31.1 µM: TGI [21]
> 94 µM: TGI [38]
> 72.8 µM: TGI [9]
42.6 µM: TGI [6]
33.2 µM: TGI [2]
28.1 µM: TGI [16]
> 67 µM: TGI [1]
21.5 µM: TGI [33]
> 74.4 µM: TGI [46]
> 63.6 µM: TGI [7]
> 46.9 µM: TGI [13]
> 70 µM: TGI [37]
52.9 µM: TGI [52]
> 79.9 µM: TGI [57]
31 µM: TGI [11]
27.8 µM: TGI [42]
52.4 µM: TGI [22]
> 71.9 µM: TGI [30]
27.3 µM: TGI [58]
39.7 µM: TGI [24]
> 59.7 µM: TGI [43]
50.4 µM: TGI [35]
52.1 µM: TGI [54]

Cc1ccc(S(=O)(=O)n2cc(/C=C/C#N)c(/C=C/C#N)c2)cc1
> 100 µM: TGI [1] | TGI [2] | TGI [3] | TGI [4] | TGI [5] | TGI [6] | TGI [7] | TGI [10] | TGI [12] | TGI [13] | TGI [14] | TGI [15] | TGI [16] | TGI [17] | TGI [18] | TGI [19] | TGI [20] | TGI [21] | TGI [22] | TGI [23] | TGI [24] | TGI [26] | TGI [27] | TGI [28] | TGI [30] | TGI [32] | TGI [33] | TGI [34] | TGI [35] | TGI [36] | TGI [37] | TGI [38] | TGI [40] | TGI [41] | TGI [42] | TGI [44] | TGI [45] | TGI [46] | TGI [47] | TGI [48] | TGI [49] | TGI [50] | TGI [51] | TGI [52] | TGI [53] | TGI [54] | TGI [55] | TGI [56] | TGI [57] | TGI [58]
86.7 µM: TGI [29]
